As usually defined, the IC50 is the point on the concentration scale where inhibition reaches its midpoint. The low end stands for inhibition by little substance, the high end for a need for much substance.

Some results are limits rather than exact numbers.

For one assay, the target named is T1, COX-2 (Homo sapiens, UniProt P35354).
T1 sequence (P35354 18-604): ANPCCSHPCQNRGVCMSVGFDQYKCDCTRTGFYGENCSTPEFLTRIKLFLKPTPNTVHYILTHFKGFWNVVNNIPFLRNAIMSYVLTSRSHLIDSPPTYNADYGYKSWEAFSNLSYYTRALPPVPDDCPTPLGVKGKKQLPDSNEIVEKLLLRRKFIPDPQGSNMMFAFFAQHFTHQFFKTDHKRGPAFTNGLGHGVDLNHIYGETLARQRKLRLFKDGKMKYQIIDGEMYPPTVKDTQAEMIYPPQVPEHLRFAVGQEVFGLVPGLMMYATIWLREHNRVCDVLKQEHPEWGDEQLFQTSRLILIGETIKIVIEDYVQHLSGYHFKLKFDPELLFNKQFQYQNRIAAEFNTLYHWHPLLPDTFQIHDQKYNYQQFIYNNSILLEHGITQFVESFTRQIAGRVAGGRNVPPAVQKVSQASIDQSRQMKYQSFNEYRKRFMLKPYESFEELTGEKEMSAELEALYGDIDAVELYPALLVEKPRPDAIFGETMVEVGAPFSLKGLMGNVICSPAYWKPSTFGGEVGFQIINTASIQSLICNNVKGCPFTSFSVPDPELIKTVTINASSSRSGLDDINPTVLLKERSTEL
In words: Cell-based COX-2 inhibition (canine, feline or human assays). As to conditions: from IC50 COX-1 vs COX-2. As to the method:
The human cell based COX-2 assay can be carried out as previously described (Moore et al., Inflam. Res., 45, 54, 1996). Confluent human umbilical vein endothelial cells (HUVECs, Morinaga) in a 96-well flat bottom plate can be washed with 80 ml of RPMI1640 containing 2% FBS and incubated with hIL-1β (final concentration 300 U/ml, R & D Systems) at 37° C. for 24 hours. After washing, the activated HUVECs can be incubateed with test compound (final concentration; 0.1 nM-1 μM) dissolved in DMSO (final concentration; less than 0.01%) at 37° C. for 20 minutes and stimulated with A23187 (final concentration […]) in Hanks buffer containing 0.2% BSA, 20 mM Hepes at 37° C. for 15 minutes. 6-Keto-PGF1α, stable metabolite of PGI2, in the supernatant can be quantitated by using a radioimmunoassay method (antibody; Preseptive Diagnostics, SPA; Amersham).
A canine histocytoma (macrophage-like) cell line from the American Type Culture Collection designated as DH82, can be used in setting up the protocol for evaluating the COX-2 inhibition activity of various test drug compounds. […] The EIA can be performed for prostaglandin E2 (PGE2) and the pg/mL concentration of PGE2 can be calculated from the standard line included on each plate. […] The results are averaged and a single COX-1:COX-2 ratio is calculated. […]

The target in a further assay is T2, COX-1 (Homo sapiens, UniProt P23219).
T2 construct: endogenous in cells; host or cells: one of: human washed platelets, canine washed platelets, or feline/canine/human whole blood
T2 sequence (P23219 24-599): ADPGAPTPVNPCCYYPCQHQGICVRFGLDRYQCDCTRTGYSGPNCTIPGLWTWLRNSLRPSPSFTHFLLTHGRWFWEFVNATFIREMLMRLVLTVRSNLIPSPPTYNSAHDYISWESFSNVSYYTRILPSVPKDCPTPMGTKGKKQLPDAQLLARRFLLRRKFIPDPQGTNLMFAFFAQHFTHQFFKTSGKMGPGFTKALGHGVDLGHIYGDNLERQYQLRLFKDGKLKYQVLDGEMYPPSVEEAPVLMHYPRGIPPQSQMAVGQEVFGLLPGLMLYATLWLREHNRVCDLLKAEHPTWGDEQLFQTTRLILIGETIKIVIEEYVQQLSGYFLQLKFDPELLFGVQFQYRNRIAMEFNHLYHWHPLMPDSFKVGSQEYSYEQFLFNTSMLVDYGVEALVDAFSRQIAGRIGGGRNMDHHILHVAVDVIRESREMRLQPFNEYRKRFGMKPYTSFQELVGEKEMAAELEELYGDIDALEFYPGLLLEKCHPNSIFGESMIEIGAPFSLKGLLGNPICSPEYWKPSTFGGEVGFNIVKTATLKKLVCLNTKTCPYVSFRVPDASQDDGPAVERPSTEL
As to the kind of experiment: Cell-based COX-1 inhibition. As to conditions: assay/species not specified. The protocol: Human peripheral blood obtained from healthy volunteers can be diluted to 1/10 volume with 3.8% sodium citrate solution. The platelet-rich plasma immediately obtained can be washed with 0.14 M sodium chloride containing 12 mM Tris-HCl (pH 7.4) and 1.2 mM EDTA. Platelets can then be washed with platelet buffer (Hanks buffer (Ca free) containing 0.2% BSA and 20 mM Hepes). Finally, the human washed platelets (HWP) can be suspended in platelet buffer at the concentration of 2.85×10^8 cells/ml and stored at room temperature until use. The HWP suspension (70 μl aliquots, final 2.0×10^7 cells/ml) can be placed in a 96-well U bottom plate and 10 μl aliquots of 12.6 mM calcium chloride added. […] The reaction can be stopped by addition of EDTA (final 7.7 mM) and TxB2 in the supernatant quantitated by using a radioimmunoassay kit (Amersham) according to the manufacturer's procedure.
Test drug compounds can be solubilized and diluted the day before the assay can be to be conducted with 0.1 mL of DMSO/9.9 mL of Hank's balanced salts solution (HBSS) and stored overnight at 4° C. […] The pg/mL of TXB2 can be calculated from the standard line included on each plate, from which it can be possible to calculate the percent inhibition of COX-1 and the IC50 values for the test drug compounds. […]
COX-2 selectivity can be determined by ratio in terms of IC50 value of COX-1 inhibition to COX-2 inhibition. […]

For `Cc1cc(C)cc(NC(=O)N2C(=O)C(C(=O)c3cnccn3)c3cc(C)c(F)cc32)c1` (centres unmarked) [6-Fluoro-5-methyl-2-oxo-3-(pyrazine-2-carbonyl)-2,3-dihydro-indole-1-carboxylic acid (3,5-dimethyl-phenyl)-amide], the “selectivity for COX-2 (COX-1/COX-2 IC50)” value on COX-2 is “no selectivity for COX-2”. This compound also had an IC50 against COX-1 of more than 150 µM.

Values taken from US6846818B2, “Selective inhibitors of cyclooxygenase-2” (Pfizer Inc., priority 2002, dated 2005).
